# pIC50: −log10 of the molar value.
# Key:
# [1] = target: mu opioid receptor (UniProt P35372); test: Mu-opioid receptor agonist activity; assay type: cell-based
# Protocol: The ability of agonists to cause recruitment of beta-arrestin to the mu opioid receptor was measured using DiscoveRx PathHunter technology. A pro-linked tagged mu-opioid receptor and an EA-tagged beta-arrestin were expressed in U2OS cells and beta-arrestin recruitment measured following the methodology in McGuinness et al., 2009 (J Biomol Screen 14:49-58, Characterizing cannabinoid CB2 receptor ligands using DiscoverRx PathHunter beta-arrestin assay—McGuinness D., Malikzay A., Visconti R., Lin K., Bayne M., Monsma F., Lunn C A.)
# The ability of mu opioid receptor agonists to inhibit forskolin stimulated cAMP production was measured in CHO cells recombinantly expressing the mu opioid receptor, using alphascreen technology as described in Nickolls et al., 2005, with the additional inclusion of 50 uM forskolin in the assay buffer. (J Pharmacol Exp Ther 313; 1281-88, Functional selectivity of melanocortin 4 receptor peptide and non-peptide agonists: Evidence for ligand specific conformational states. Nickolls S A., Fleck B., Hoare S., Maki R.)
# Functional activity at the mu-opioid receptors was determined using the electrically stimulated guinea pig isolated myenteric plexus preparation following the methodology of Hughes, J.; Kosterlitz, H. W. and Leslie, F. M. Br. J. Pharmacol. 1975, 53, 371.
# [2] = Lipophilicity (LogD), shake-flask octanol/buffer pH 7.4; assay type: physicochemical; conditions: octanol / 0.1M phosphate buffer pH 7.4
# Source text: LogD octanol (pH 7.4) is a measure of lipophilicity that accounts for both hydrophobic and hydrogen-bonding interactions of a given substrate. This assay is based on shake-flask methodology, performed in a fully automated manner in a 0.1M phosphate buffer pH7.4-octanol system.
# After addition of the test substance in DMSO stock solution to the mixture and vigorous agitation followed by separation of the octanol and buffer layers by centrifugation, duplicate samples are removed from each layer and diluted prior to analysis by LC-MS/MS. Peak area is corrected for dilutions and the following equation used to calculate the logD (pH 7.4): […]
# The duplicate logD values must be with 0.4 log units of each other and the positive controls must be within 0.2 log units of the known logD value.
# [3] = Dofetilide binding; conditions: probe dofetilide
# [4] = system: MDR; test: MDR Papp permeability; assay type: in vitro ADME; conditions: not told
# [5] = Human liver microsomal stability assay (HLM); assay type: in vitro ADME; conditions: pooled liver microsomes, pH 7.4, 1 μM substrate, 37° C.
# Source text: In vitro measurement of substrate metabolism can be determined using the microsomal cytochrome P450 mono-oxygenase system. This is a useful application in ranking clearance of a number of compounds by Phase I (including cytochrome P450) metabolism prior to in vivo assessment Measurement of intrinsic clearance using these methods also allows a comparison of species difference to be made to assist with translation of pharmacokinetic parameters from preclinical to clinical study.
# Human and rat Liver microsomal assays were performed using pooled microsomes from the Pfizer Global Supply (BD Gentest™). Chemical reagents were purchased from commercial sources (Sigma-Aldrich) and drug entities synthesised at Pfizer Global Research. Incubation mixtures contained 50 mM phosphate buffer pH 7.4, 5 mM MgCl2, 5 mM isocitric acid and 1 unit/ml isocitric dehydrogenase. The microsomes were defrosted at room temperature and sufficient volumes added to give a final concentration of 0.5 nmol cytochrome P450/ml. Following the addition of 1 μM of substrate, the incubation was pre-incubated at 37° C. for 5 minutes. The reaction was then initiated by the addition of 1 mM NADP and incubation aliquots are taken over a 1 h time course. The reaction was subsequently stopped by addition of acetonitrile cooled on ice. […]
# The intrinsic clearance in rat or human liver microsomes is calculated from: […]
SMILES,pIC50 [1],logD [2],pIC50 [3],Papp [4] [×10⁻⁶ cm/s],microsomal CLint at 1 μM [5] [µL/min/mg]
"Cc1cc(O)cc(C)c1C[C@H](N)C(=O)N[C@H](C)C(=O)NC[C@@H](N)Cc1ccccc1 [Example 1, 2,6-Dimethyl-L-tyrosyl-N-[(2S)-2-amino-3-phenylpropyl]-D-alaninamide]",8.01,0.05,< 4.66,0.7,8.4
"Cc1cc(O)cc(C)c1C[C@H](N)C(=O)N[C@H](C)C(=O)NC[C@H](N)Cc1ccccc1 [Example 2, 2,6-Dimethyl-L-tyrosyl-N-[(2R)-2-amino-3-phenylpropyl]-D-alaninamide]",8.22,-0.2,< 4.66,0.6,< 8

# Reference: patent US8957025B2, “Enkephalin analogues” (Pfizer Inc., priority 2011, dated 2015)
